We go through seven molecules from patent US6617127B2, “Synthesis and recovery of aspartame involving enzymatic deformylation step” (Holland Sweetener Company, V.O.F., priority 1998, dated 2003).

Residues, ends and D or L forms follow the SMILES beside them. *: point of attachment. For = O=C* Some results are limits rather than exact numbers.

In series [1] the target is T1, EC 3.5.1.27 PDF (Fe^2+) enzyme (Escherichia coli, UniProt P0A6K3).
T1 construct: made in house; host or cells: E. coli (overproducing cells)
T1 sequence (P0A6K3 1-169): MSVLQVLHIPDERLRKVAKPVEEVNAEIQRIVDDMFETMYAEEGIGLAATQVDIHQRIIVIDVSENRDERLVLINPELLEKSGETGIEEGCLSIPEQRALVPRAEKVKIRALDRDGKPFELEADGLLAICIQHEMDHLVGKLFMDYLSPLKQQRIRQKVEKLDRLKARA
The series can be described thus: Deformylation reactions with PDF (Fe^2+), free amino compound determined by TNBS. The class given is biochemical, E. coli. The note with it: for yield (%) of deformylated product: 100 mM substrate, 0.2 mM PDF (Fe^2+), MES/KOH pH 6.2, 250 mM KCl, 37° C., after 10 hours; for inhibition of the PDF in the deformylation of F-α-AP and F-α-APM: presence of the β-form. As for the experimental part:
An EC 3.5.1.27 PDF (Fe^2+) enzyme was isolated from overproducing E. coli cells grown at 30° C. in 1.6 l TB medium for 14-16 hours. […] After washing with 120 ml of 20 mM Hepes/KOH, 100 mM KF, 0.2 mM TCEP, pH 7.7, the PDF (Fe^2+) was eluted with 150 ml 20 mM Hepes/KOH, 100 mM KCl, 0.2 mM TCEP, pH 7.7. […] After adjustment of the TCEP concentration to 1 mM and protein concentration to 40 mg/ml PDF (Fe^2+) was stored frozen at −60° C.
Compounds (100 mM) as indicated in Table 2 for each separate Example were incubated in the presence of 100 mM aqueous 2-(N-morpholino)-ethanesulphonic acid (MES)/KOH buffer pH=6.2 and 250 mM KCl at 37° C. […] Following a brief centrifugation, the amount of deformylated compounds in the supernatant was determined by trinitrobenzene sulphonic acid (TNBS) according to the method of Fields (Methods in Enzymology, 25, 464-468 (1972)), using ε420=21.2 mM^−1 cm^−1. The amount of (deformylated) compound each time was corrected for the intrinsic amount of free amino compound which was detected without incubation with the PDF.
The product yields indicated are the yields after 10 hours of reaction time.
In addition, the catalytic properties of the PDF in the deformylation reactions of F-α-AP and F-α-APM (in particular the initial reaction rates for deformylation in resp. 1 hour for F-α-APM and 3 hours for F-α-AP) were determined by performing the reactions of Examples 1 and 2 at various substrate concentrations from 2-140 mM. In particular, the following catalytic properties of the enzyme were determined: […]

Series [2] concerns penicillin-acylase. The note with it: after 36 hours, 50 U of enzyme and 2 g of F-α-APM; cited from earlier work.
Series [3] concerns immobilized penicillin-acylase. Briefly: Comparative Example D: deformylation of F-α-APM with penicillin-acylase, TLC. The class given is biochemical. The note with it: 1 g F-α-APM in 25 ml, 0.2 g enzyme preparation, pH 6,5, 37° C., 48 hours. As for the experimental part:
1 g of F-α-APM was dissolved in 25 ml of distilled water and the pH was adjusted to 6,5 by the addition of 0.1 M aqueous NaOH. Then, 0.2 g of an immobilized penicillin-acylase preparation was added. The reaction mixture was allowed to stand for 48 hours at 37° C. At regular time intervals during the reaction, samples were taken and analyzed by thin layer chromatography using α-APM as a reference substance.

Substrate in series [4]: O=CN[C@@H](CC(=O)O)C(=O)N[C@@H](Cc1ccccc1)C(=O)O
The series can be described thus: Deformylation reactions with PDF (Fe^2+), free amino compound determined by TNBS. The settings on record: other: substrate concentrations 2-140 mM, initial reaction rates. Type of series: biochemical, E. coli.

Substrate in series [5]: COC(=O)[C@H](Cc1ccccc1)NC(=O)C[C@H](NC=O)C(=O)O
The description is as above. The class given is biochemical, E. coli. The settings on record: other: PDF (Fe^2+), pH 6.2, 37° C.

Substrate in series [6]: O=CN[C@@H](CC(=O)N[C@@H](Cc1ccccc1)C(=O)O)C(=O)O
The series is described as above. The class given is biochemical, E. coli. The settings on record: other: PDF (Fe^2+), pH 6.2, 37° C.

Substrate in series [7]: COC(=O)[C@H](Cc1ccccc1)NC(=O)[C@H](CC(=O)O)NC=O
Described as above. The settings on record: other: substrate concentrations 2-140 mM, initial reaction rates. The class given is biochemical, E. coli.

A short description of series [8]: Activity assay of isolated PDF (Fe^2+). The class given is biochemical. The settings on record: 5 mM formylmethionyl-alanine, 30° C., pH=7.2. On the procedure:
An EC 3.5.1.27 PDF (Fe^2+) enzyme was isolated from overproducing E. coli cells grown at 30° C. in 1.6 l TB medium for 14-16 hours. About 13 g (wet weight) of cell paste were suspended in 26 ml buffer (20 mM Hepes/KOH, 100 mM KF, pH 7.7 supplemented with 10 μg/ml catalase from bovine liver (Boehringer Mannheim) and 1 mM AEBSF, disintegrated by sonification (Branson B12, 20 min) at 0° C. and centrifuged at 200.000 g for 1 hour. The clear supernatant (1.3 g of protein; according to biurete reaction) was mixed with 1.3 ml 10% (w/v) Polymin G-35 (BASF) adjusted to pH 7.7 and centrifuged at 40.000 g for 10 minutes. The supernatant was applied to a 20 ml Met-Lys-Sepharose column that had been equilibrated with 20 mM Hepes/KOH, 100 mM KF, 0.2 mM TCEP, pH 7.7. After washing with 120 ml of 20 mM Hepes/KOH, 100 mM KF, 0.2 mM TCEP, pH 7.7, the PDF (Fe^2+) was eluted with 150 ml 20 mM Hepes/KOH, 100 mM KCl, 0.2 mM TCEP, pH 7.7. The protein containing fractions were concentrated by ultrafiltration using an Amicon PM10 membrane (yield: 140 mg protein, having an activity of 800 IU/mg; assay conditions: 5 mM formylmethionyl-alanine, 30° C., pH=7.2). After adjustment of the TCEP concentration to 1 mM and protein concentration to 40 mg/ml PDF (Fe^2+) was stored frozen at −60° C.

Consider `O=CN[C@@H](CC(=O)O)C(=O)O` [F-Asp, N-formyl-L-aspartic acid], for which, in series [1], the “yield (%) of deformylated product” value came out at 0.5%.

Take `O=CN[C@@H](CC(=O)O)C(=O)N[C@@H](Cc1ccccc1)C(=O)O` [F-α-AP, N-formyl-α-L-aspartyl-L-phenylalanine] (For-Asp-Phe-OH): the “yield (%) of deformylated product” value in series [1] is 21.6%.

`COC(=O)[C@H](Cc1ccccc1)NC(=O)[C@H](CC(=O)O)NC=O` [F-α-APM, N-formyl-α-L-aspartyl-L-phenylalanine methyl ester] (For-Asp-Phe-OMe): the “yield (%) of deformylated product” value in series [1] was found to be 44.2%. In addition, the yield of deformylation in series [2] is recorded as 20%. Also, in series [3], the “formation of α-APM from F-α-APM” value is recorded as “In none of the samples taken, formation of α-APM from F-α-APM could be demonstrated”.

Consider `O=CN[C@@H](CC(=O)N[C@@H](Cc1ccccc1)C(=O)O)C(=O)O` [F-β-AP, N-formyl-β-L-aspartyl-L-phenylalanine], for which, in series [1], the “yield (%) of deformylated product” value was determined as 1.1%; the “inhibition of the PDF in the deformylation of F-α-AP and F-α-APM” value was “does not give any inhibition”.

For the molecule `COC(=O)[C@H](Cc1ccccc1)NC(=O)C[C@H](NC=O)C(=O)O` [F-β-APM, N-formyl-β-L-aspartyl-L-phenylalanine methyl ester], in series [1], the “yield (%) of deformylated product” value is 0.2%; the “inhibition of the PDF in the deformylation of F-α-AP and F-α-APM” value is listed as “does not give any inhibition”.

B1: EC 3.5.1.27 PDF (Fe^2+) enzyme (Escherichia coli K-12) (protein)
chain: T1 sequence (P0A6K3 1-169)
notes: made in house; host or cells: E. coli (overproducing cells)
By Km is commonly meant the substrate concentration at which the rate is half of its maximum. Usually kcat stands for the maximal rate divided by the concentration of active sites. As a reminder, the kcat/Km is the second-order rate constant that governs catalysis at low substrate concentration. B1: the Michaelis constant (Km) in series [4] was 12.3 mM; in series [7], 25.3 mM. The results for the kcat in series [4] and in series [7] were 0.00333 s⁻¹ and 0.0117 s⁻¹, respectively. For the same molecule, the kcat/Km in series [4] was 0.27 M⁻¹ s⁻¹; in series [5], under 0.0001 M⁻¹ s⁻¹; in series [6] it was under 0.0001 M⁻¹ s⁻¹; in series [7] it was 0.46 M⁻¹ s⁻¹.

B2: PDF (Fe^2+): EC 3.5.1.27 formylmethionyl peptide deformylase with Fe^2+ co-factor, isolated from overproducing E. coli cells (protein, UniProt P0A6K3 2-169, looked up)
Peptide deformylase: SVLQVLHIPDERLRKVAKPVEEVNAEIQRIVDDMFETMYAEEGIGLAATQVDIHQRIIVIDVSENRDERLVLINPELLEKSGETGIEEGCLSIPEQRALVPRAEKVKIRALDRDGKPFELEADGLLAICIQHEMDHLVGKLFMDYLSPLKQQRIRQKVEKLDRLKARA
modifications: Fe2+ cofactor
notes: EC 3.5.1.27 formylmethionyl peptide deformylase with Fe^2+ co-factor, isolated from overproducing E. coli cells
Consider B2, for which the “activity of the enzyme” value in series [8] amounted to 800 IU/mg.
